The test system of the test is Mycobacterium tuberculosis variant bovis. As to the kind of experiment: Antimicrobial activity against Mycobacterium bovis after 1 to 5 days by two-fold dilution. The format is functional, organism-based.

We go through 1 molecule from ChEMBL document CHEMBL4414576, “Recent advancements in mechanistic studies and structure activity relationship of FoF1 ATP synthase inhibitor as antimicrobial agent” (Eur J Med Chem, 2019).

As usually defined, the IC50 is the concentration at which inhibition is half-maximal. A low value points to higher potency. Molecule `FC(F)(F)Oc1cccc(CNCCNC2C3CC4CC(C3)C2C4)c1` (stereo unspecified) displayed a concentration for half-maximal inhibition (IC50) of 1250 nM.
